Measurements: ChEMBL document CHEMBL3860050, “Triterpenoids from Momordica balsamina: Reversal of ABCB1-mediated multidrug resistance” (Bioorg Med Chem, 2016)
pIC50: −log10 of the molar value.

What was measured:
[1] = biological target: T1, ATP-dependent translocase ABCB1 (Homo sapiens, UniProt P08183); assay: Inhibition of MDR1-mediated efflux-pump activity in mouse L5178Y cells expressing human MDR1 assessed as forward scattered light at 20 uM preincubated for 10 mins followed by rhodamine-123 addition measured after 20 mins by flow cytometry (reference value: 455.7 to 509.9); type: cell-based
T1 sequence (P08183 whole entry): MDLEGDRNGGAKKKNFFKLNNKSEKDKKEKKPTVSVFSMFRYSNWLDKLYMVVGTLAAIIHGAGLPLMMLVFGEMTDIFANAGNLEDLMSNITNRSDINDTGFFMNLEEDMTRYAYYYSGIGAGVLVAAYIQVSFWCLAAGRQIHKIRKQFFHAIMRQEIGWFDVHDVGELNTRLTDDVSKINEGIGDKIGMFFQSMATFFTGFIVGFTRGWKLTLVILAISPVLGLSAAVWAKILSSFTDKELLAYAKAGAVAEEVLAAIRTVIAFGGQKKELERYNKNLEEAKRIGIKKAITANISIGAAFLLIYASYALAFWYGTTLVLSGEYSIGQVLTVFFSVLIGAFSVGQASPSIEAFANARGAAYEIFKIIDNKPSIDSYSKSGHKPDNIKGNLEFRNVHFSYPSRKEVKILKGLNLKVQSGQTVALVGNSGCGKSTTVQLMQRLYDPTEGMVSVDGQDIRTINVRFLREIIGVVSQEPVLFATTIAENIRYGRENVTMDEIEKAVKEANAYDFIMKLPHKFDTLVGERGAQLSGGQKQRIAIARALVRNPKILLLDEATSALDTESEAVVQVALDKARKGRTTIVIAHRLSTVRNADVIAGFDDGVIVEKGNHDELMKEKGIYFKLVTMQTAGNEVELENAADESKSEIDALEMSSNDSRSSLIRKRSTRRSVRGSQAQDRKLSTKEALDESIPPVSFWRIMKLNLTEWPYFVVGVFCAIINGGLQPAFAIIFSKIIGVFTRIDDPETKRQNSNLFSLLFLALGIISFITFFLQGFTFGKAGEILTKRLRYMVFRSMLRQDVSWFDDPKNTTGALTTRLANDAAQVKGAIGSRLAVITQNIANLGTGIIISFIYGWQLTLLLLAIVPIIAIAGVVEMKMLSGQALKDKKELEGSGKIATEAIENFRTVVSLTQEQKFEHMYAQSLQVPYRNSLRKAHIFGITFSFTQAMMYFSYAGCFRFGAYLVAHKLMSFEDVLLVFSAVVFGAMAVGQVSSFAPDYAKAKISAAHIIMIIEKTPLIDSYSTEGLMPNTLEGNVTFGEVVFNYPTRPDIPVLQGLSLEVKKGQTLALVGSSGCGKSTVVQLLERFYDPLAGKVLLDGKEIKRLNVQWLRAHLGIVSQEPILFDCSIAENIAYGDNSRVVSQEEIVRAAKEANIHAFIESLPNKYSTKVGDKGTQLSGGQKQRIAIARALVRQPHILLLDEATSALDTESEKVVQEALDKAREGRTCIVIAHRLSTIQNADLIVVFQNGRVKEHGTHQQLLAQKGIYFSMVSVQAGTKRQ

[2] = biological target: T1, ATP-dependent translocase ABCB1; assay: Inhibition of MDR1-mediated efflux-pump activity in mouse L5178Y cells expressing human MDR1 assessed as forward scattered light at 2 uM preincubated for 10 mins followed by rhodamine-123 addition measured after 20 mins by flow cytometry (reference value: 455.7 to 509.9); type: cell-based
[3] = Antiproliferative activity against mouse L5178Y cells expressing human MDR1 measured after 72 hrs by MTT assay; type: functional, cell-based
[4] = Antiproliferative activity against mouse L5178Y cells measured after 72 hrs by MTT assay; type: functional, cell-based
[5] = biological target: T1, ATP-dependent translocase ABCB1; assay: Inhibition of MDR1-mediated efflux-pump activity in mouse L5178Y cells expressing human MDR1 assessed as side scattered light at 2 uM preincubated for 10 mins followed by rhodamine-123 addition measured after 20 mins by flow cytometry (reference value: 194.6 to 286.4); type: cell-based
[6] = biological target: T1, ATP-dependent translocase ABCB1; assay: Inhibition of MDR1-mediated efflux-pump activity in mouse L5178Y cells expressing human MDR1 assessed as side scattered light at 20 uM preincubated for 10 mins followed by rhodamine-123 addition measured after 20 mins by flow cytometry (reference value: 194.6 to 286.4); type: cell-based
[7] = biological target: T1, ATP-dependent translocase ABCB1; assay: Inhibition of MDR1-mediated efflux-pump activity in mouse L5178Y cells expressing human MDR1 assessed as mean fluorescence intensity at 2 uM preincubated for 10 mins followed by rhodamine-123 addition measured after 20 mins by flow cytometry (reference value: 7.1 to 18.6); type: cell-based
[8] = biological target: T1, ATP-dependent translocase ABCB1; assay: Inhibition of MDR1-mediated efflux-pump activity in mouse L5178Y cells expressing human MDR1 assessed as mean fluorescence intensity at 20 uM preincubated for 10 mins followed by rhodamine-123 addition measured after 20 mins by flow cytometry (reference value: 7.1 to 18.6); type: cell-based
[9] = biological target: T1, ATP-dependent translocase ABCB1; assay: Inhibition of MDR1-mediated efflux-pump activity in mouse L5178Y cells expressing human MDR1 assessed as fluorescence activity ratio at 2 uM preincubated for 10 mins followed by rhodamine-123 addition measured after 20 mins by flow cytometry; type: cell-based
[10] = biological target: T1, ATP-dependent translocase ABCB1; assay: Inhibition of MDR1-mediated efflux-pump activity in mouse L5178Y cells expressing human MDR1 assessed as fluorescence activity ratio at 20 uM preincubated for 10 mins followed by rhodamine-123 addition measured after 20 mins by flow cytometry; type: cell-based
[11] = biological target: T1, ATP-dependent translocase ABCB1; assay: Inhibition of MDR1 in mouse L5178Y cells expressing human MDR1 assessed as doxorubicin-induced antiproliferative activity by measuring combination index at 1.4:1 compound to doxorubicin ratio measured after 48 hrs by MTT assay; type: cell-based
[12] = biological target: T1, ATP-dependent translocase ABCB1; assay: Inhibition of MDR1 in mouse L5178Y cells expressing human MDR1 assessed as doxorubicin-induced antiproliferative activity by measuring combination index at 5.7:1 compound to doxorubicin ratio measured after 48 hrs by MTT assay; type: cell-based
[13] = biological target: T1, ATP-dependent translocase ABCB1; assay: Inhibition of MDR1 in mouse L5178Y cells expressing human MDR1 assessed as doxorubicin-induced antiproliferative activity by measuring combination index at 11.3:1 compound to doxorubicin ratio measured after 48 hrs by MTT assay; type: cell-based

Structure (SMILES) | Activity [1] | Activity [2] | pIC50 [3] | pIC50 [4] | Activity [5] | Activity [6] | Flu intensity [7] | Flu intensity [8] | Ratio [9] | Ratio [10] | CI [11] | CI [12] | CI [13]
CO[C@H]1C=C2[C@@H](CC[C@H](O)C2(C)C)[C@]2(C)C[C@@H](O)[C@]3(C)[C@@H]([C@H](C)C/C=C/C(C)(C)O)CC[C@@]3(C)[C@H]12 | 585 | 568.6 | 4.33 | 4.35 | 249.6 | 235.8 | 27.2 | 391.6 | 2.7 | 38.2 | 0.393 |  | 
CO[C@H]1C=C2[C@@H](CC[C@H](O)C2(C)C)[C@]2(C)CC[C@]3(C)[C@@H]([C@H](C)C[C@H](C=C(C)C)O[C@@H]4O[C@H](CO)[C@@H](O)[C@H](O)[C@H]4O)CC[C@@]3(C)[C@H]12 | 457.3 | 446.8 | 4.48 | 5.46 | 266.8 | 269.2 | 12.4 | 643.1 | 1 | 49.1 |  | 0.956 | 
C[C@H](C/C=C/C(C)(C)O)[C@H]1CC[C@@]2(C)[C@@H]3[C@@H](O)C=C4[C@@H](CC[C@H](O)C4(C)C)[C@]3(C)CC[C@]12C | 395.2 | 570.5 | 4.56 | 4.73 | 249 | 243.9 | 73.1 | 368.4 | 7.1 | 36 |  | 0.71 | 
CC(C)=C[C@H](O)C[C@@H](C)[C@H]1CC[C@@]2(C)[C@@H]3[C@@H](O)C=C4[C@@H](CC[C@H](O)[C@]4(C)CO)[C@]3(C)CC[C@]12C [BALSAMINOL A] | 454.5 | 432.9 | 4.90 | 5.14 | 259 | 260 | 20.1 | 766.1 | 1.5 | 47.6 |  |  | 0.503
CO[C@H]1C=C2[C@@H](CC[C@H](O)[C@]2(C)CO)[C@]2(C)CC[C@]3(C)[C@@H]([C@H](C)C[C@@H](O)C=C(C)C)CC[C@@]3(C)[C@H]12 [BALSAMINOL B] | 461.8 | 439.5 | 4.51 | 5.11 | 258.8 | 260.7 | 95.7 | 899.1 | 7.3 | 68.7 | 0.378 |  | 
CC(C)=CC(=O)C[C@@H](C)[C@H]1CC[C@@]2(C)[C@@H]3C(=O)C=C4[C@@H](CC[C@H](O)[C@]4(C)CO)[C@]3(C)CC[C@]12C [BALSAMINOL C] | 502.2 | 502.3 | 4.37 | 4.72 | 205.4 | 195.7 | 22.3 | 1537.8 | 2.9 | 198.9 |  | 0.268 | 
CC(C)=C[C@H](O)C[C@@H](C)[C@H]1CC[C@@]2(C)[C@@H]3C(=O)C=C4[C@@H](CC[C@H](O)C4(C)C)[C@]3(C)CC[C@]12C [BALSAMINOL E] | 593 | 582.7 | 4.26 | 4.38 | 243.4 | 234.5 | 20.8 | 663.1 | 2 | 64.8 |  | 0.721 | 
CO[C@H]1C=C2[C@@H](CC[C@H](O)C2(C)C)[C@]2(C)C[C@@H](O)[C@]3(C)[C@@H]([C@H](C)C[C@@H](O)C=C(C)C)CC[C@@]3(C)[C@H]12 [CUCURBALSAMINOL C] | 564.3 | 568.5 | 4.46 | 4.71 | 241.8 | 237.6 | 31.6 | 202.8 | 3.1 | 19.8 |  | 0.416 | 
CC(C)=C[C@H](O)C[C@@H](C)[C@H]1CC[C@@]2(C)[C@@H]3C=C[C@@]45OC[C@]3(CC[C@]12C)[C@@H]4CC[C@H](O)C5(C)C [KARAVILAGENIN E] | 474 | 568.8 | 4.34 | 4.67 | 234.2 | 242 | 38.4 | 743.8 | 3.8 | 72.6 |  | 0.437 | 
CO[C@H]1C=C2[C@@H](CC[C@H](O)C2(C)C)[C@]2(C)CC[C@]3(C)[C@@H]([C@H](C)C[C@H](C=C(C)C)OC(=O)/C=C/c4ccccc4)CC[C@@]3(C)[C@H]12 [KARAVOATE O] | 505.9 | 496.9 | 4.05 | < 3.88 | 197.9 | 206.9 | 10 | 11 | 1.3 | 1.4 |  |  | 
CO[C@H]1C=C2[C@@H](CC[C@H](OC(=O)/C=C/c3ccccc3)C2(C)C)[C@]2(C)CC[C@]3(C)[C@@H]([C@H](C)C[C@H](C=C(C)C)OC(=O)/C=C/c4ccccc4)CC[C@@]3(C)[C@H]12 [KARAVOATE P] | 503 | 528 | < 3.88 | < 3.88 | 191.2 | 177 | 6.9 | 18.1 | 1 | 2.7 |  |  | 
CC(=O)O[C@H]1C=C2[C@@H](CC[C@H](OC(C)=O)C2(C)C)[C@]2(C)CC[C@]3(C)[C@@H]([C@H](C)C[C@H](C=C(C)C)OC(C)=O)CC[C@@]3(C)[C@H]12 [TRIACETYLBALSAMINOL F] | 533.5 | 541.9 | < 3.88 | < 3.88 | 182.1 | 179.9 | 20 | 100.6 | 3 | 15 |  |  | 
CC(C)=C[C@@H](C[C@@H](C)[C@H]1CC[C@@]2(C)[C@@H]3[C@@H](OC(=O)c4ccccc4)C=C4[C@@H](CC[C@H](OC(=O)c5ccccc5)C4(C)C)[C@]3(C)CC[C@]12C)OC(=O)c1ccccc1 [TRIBENZOYLBALSAMINOL F] | 538.1 | 524.2 | 4.06 | 4.13 | 188.7 | 181.7 | 7.6 | 7.1 | 1.3 | 1.1 |  |  | 
